In article PMC3569073 (Journal of medicinal chemistry, 2013):
Several values for one entry are separate records, joined by “and”; a condition that tells them apart may be missing. Equal entries are not always repeated. Where two headings read alike, the source gives them in different places.

What was measured:
[1] = system: 68 discrete GPCRs, ion channels and transporters; assay type: binding; conditions: 10 μM
SARS-CoV 3CLpro = SARS-CoV 3CLpro (Severe acute respiratory syndrome coronavirus, UniProt P0C6X7); experiment: biochemical; assay type: biochemical; conditions: for inhibition at 100 µM: read-out: 3CLpro inhibition level
SARS 3CLpro = conditions: cited from earlier work
SARS-CoV = conditions: cited from earlier work
[2] = biological target: T1, 3CLpro enzyme from the mouse coronavirus MHV (Murine coronavirus, UniProt P0C6X9); assay type: biochemical; conditions: 100 μM
T1 sequence (P0C6X9 3334-3635 limits assumed): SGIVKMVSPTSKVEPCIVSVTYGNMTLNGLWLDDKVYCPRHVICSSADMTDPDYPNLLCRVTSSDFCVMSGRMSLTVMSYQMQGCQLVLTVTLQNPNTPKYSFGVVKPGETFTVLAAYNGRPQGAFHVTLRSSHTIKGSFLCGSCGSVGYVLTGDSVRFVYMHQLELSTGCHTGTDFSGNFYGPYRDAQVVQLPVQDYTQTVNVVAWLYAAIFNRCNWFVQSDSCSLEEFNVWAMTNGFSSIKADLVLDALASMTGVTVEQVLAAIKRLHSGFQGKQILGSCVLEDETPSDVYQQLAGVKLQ

[3] = biological target: T2, 3CLpro enzyme from the human coronavirus HKU1 (Human coronavirus HKU1, UniProt P0C6X2); assay type: biochemical; conditions: 100 μM
T2 sequence (P0C6X2 3335-3637 limits assumed): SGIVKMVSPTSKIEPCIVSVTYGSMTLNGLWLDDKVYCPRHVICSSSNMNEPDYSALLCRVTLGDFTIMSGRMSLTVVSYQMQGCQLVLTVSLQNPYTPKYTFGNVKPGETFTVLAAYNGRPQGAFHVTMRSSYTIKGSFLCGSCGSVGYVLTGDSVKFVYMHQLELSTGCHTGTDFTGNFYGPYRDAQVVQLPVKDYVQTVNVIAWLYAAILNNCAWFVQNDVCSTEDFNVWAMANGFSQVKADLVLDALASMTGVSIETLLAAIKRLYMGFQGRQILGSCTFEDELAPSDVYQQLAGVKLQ

[4] = system: SARS-CoV infected Vero cells; conditions: cited from earlier work

## CC(C)(C)NC(=O)[C@@H](c1cccnc1)N(C(=O)c1ccco1)c1ccc(C(C)(C)C)cc1 [16-(R), (R)-N-(4-(tert-butyl)phenyl)-N-(2-(tert-butylamino)-2-oxo-1-(pyridin-3-yl)ethyl)furan-2-carboxamide]
[1]
  activity in lead-profiling screen: < 50%
physchem
  solubility: ≤ 95 µg/mL and ≤ 219 µM

## CCC(C)c1ccc(N(C(=O)c2ccco2)C(C(=O)NC2CCCC2)c2cccnc2)cc1 (stereo not shown) [Compound 14]
SARS-CoV 3CLpro
  IC50: < 10000 nM

## CC(C)(C)NC(=O)C(c1cccnc1)N(C(=O)c1ccco1)c1ccc(C(C)(C)C)cc1 (stereo not shown) [Compound 16]
SARS-CoV 3CLpro
  inhibition at 100 µM: > 50%

## CC(C)c1ccc(N(C(=O)c2ccco2)C(C(=O)NC(C)(C)C)c2cccnc2)cc1 (stereo not shown) [Compound 17, N-(2-(tert-butylamino)-2-oxo-1-(pyridin-3-yl)ethyl)-N-(4-isopropylphenyl)furan-2-carboxamide]
SARS-CoV 3CLpro; read-out: 3CLpro IC50
  IC50: < 50000 nM
SARS-CoV 3CLpro
  inhibition at 100 µM: > 50%

## CC(C)(C)NC(=O)C(c1cccnc1)N(C(=O)c1ccco1)C1CC1 (stereo not shown) [Compound 18, N-(2-(tert-butylamino)-2-oxo-1-(pyridin-3-yl)ethyl)-N-cyclopropylfuran-2-carboxamide]
SARS-CoV 3CLpro
  3CLpro inhibition, SAR result in words: deleterious for inhibition

## CC(C)(C)NC(=O)C(c1cccnc1)N(C(=O)c1ccco1)c1ccc(F)cc1 (stereo not shown) [Compound 19, N-(2-(tert-butylamino)-2-oxo-1-(pyridin-3-yl)ethyl)-N-(4-fluorophenyl)furan-2-carboxamide]
SARS-CoV 3CLpro
  3CLpro inhibition, SAR result in words: deleterious for inhibition

## CC(C)(C)NC(=O)C(c1ccsc1)N(C(=O)c1ccco1)c1ccc(C(C)(C)C)cc1 (stereo not shown) [Compound 20, N-(4-(tert-butyl)phenyl)-N-(2-(tert-butylamino)-2-oxo-1-(thiophen-3-yl)ethyl)furan-2-carboxamide]
SARS-CoV 3CLpro
  3CLpro inhibition, SAR result in words: complete loss of inhibition activity

## Cc1ccc(C(=O)N(c2ccc(C(C)(C)C)cc2)C(C(=O)NC(C)(C)C)c2cccnc2)o1 (stereo not shown) [Compound 21]
SARS-CoV 3CLpro
  3CLpro inhibition, SAR result in words: negatively impacted activity

## Cc1ccoc1C(=O)N(c1ccc(C(C)(C)C)cc1)C(C(=O)NC(C)(C)C)c1cccnc1 (stereo not shown) [Compound 26]
SARS-CoV 3CLpro
  3CLpro inhibition, SAR result in words: negatively impacted activity

## CC(C)(C)NC(=O)C(c1cccnc1)N(C(=O)c1cccs1)c1ccc(C(C)(C)C)cc1 (stereo not shown) [Compound 27, N-(4-(tert-butyl)phenyl)-N-(2-(tert-butylamino)-2-oxo-1-(pyridin-3-yl)ethyl)thiophene-2-carboxamide]
SARS-CoV 3CLpro
  3CLpro inhibition, SAR result in words: weakly tolerated
  fold loss of 3CLpro activity relative to furan 16: 10 fold

## CC(C)(C)NC(=O)C(c1cccnc1)N(C(=O)c1c[nH]cn1)c1ccc(C(C)(C)C)cc1 (stereo not shown) [Compound 31, N-(4-(tert-butyl)phenyl)-N-(2-(tert-butylamino)-2-oxo-1-(pyridin-3-yl)ethyl)-1H-imidazole-4-carboxamide]
SARS-CoV 3CLpro
  3CLpro inhibition, SAR result in words: nearly equipotent

## CC(C)(C)NC(=O)C(c1cccnc1)N(C(=O)C1CCCO1)c1ccc(C(C)(C)C)cc1 (stereo not shown) [Compound 32]
SARS-CoV 3CLpro
  IC50: > 50000 nM
  fold loss of 3CLpro activity relative to furan 16: > 10 fold

## CC(C)(C)NC(=O)C(c1cccnc1)N(C(=O)c1ccc[nH]1)c1ccc(C(C)(C)C)cc1 (stereo not shown) [Compound 37]
SARS-CoV 3CLpro
  3CLpro inhibition, SAR result in words: completely inactive

## CC(C)(C)NC(=O)C(c1cccnc1)N(C(=O)c1ccc(Cl)o1)c1ccc(C(C)(C)C)cc1 (stereo not shown) [Compound 50]
SARS-CoV 3CLpro
  3CLpro inhibition, SAR result in words: nearly equipotent to 16

## CC(C)(C)NC(=O)C(c1cccnc1)N(C(=O)Cc1cnc[nH]1)c1ccc(C(C)(C)C)cc1 (stereo not shown) [Compound 51]
SARS-CoV 3CLpro
  3CLpro inhibition, SAR result in words: deleterious for inhibition

## Cn1cnc(C(=O)N(c2ccc(C(C)(C)C)cc2)C(C(=O)NC(C)(C)C)c2cccnc2)c1 (stereo not shown) [Compound 52, N-(4-(tert-butyl)phenyl)-N-(2-(tert-butylamino)-2-oxo-1-(pyridin-3-yl)ethyl)-1-methyl-1H-imidazole-4-carboxamide]
SARS-CoV 3CLpro
  fold loss of 3CLpro activity relative to imidazole 31: > 10 fold

## CC(C)(C)NC(=O)C(c1ccnnc1)N(C(=O)c1ccco1)c1ccc(C(C)(C)C)cc1 (stereo not shown) [Compound 53]
SARS-CoV 3CLpro
  3CLpro inhibition, SAR result in words: well tolerated

## CC(C)(C)NC(=O)C(c1cnccn1)N(C(=O)c1ccco1)c1ccc(C(C)(C)C)cc1 (stereo not shown) [Compound 54]
SARS-CoV 3CLpro
  3CLpro inhibition, SAR result in words: well tolerated

## Cc1ccc(C(C(=O)NC(C)(C)C)N(C(=O)c2ccco2)c2ccc(C(C)(C)C)cc2)cn1 (stereo not shown) [Compound 55, N-(4-(tert-butyl)phenyl)-N-(2-(tert-butylamino)-1-(6-methylpyridin-3-yl)-2-oxoethyl)furan-2-carboxamide]
SARS-CoV 3CLpro
  3CLpro inhibition, SAR result in words: not permitted

## CC(C)(C)NC(=O)C(c1ccncc1)N(C(=O)c1ccco1)c1ccc(C(C)(C)C)cc1 (stereo not shown) [Compound 56]
SARS-CoV 3CLpro
  3CLpro inhibition, SAR result in words: weak inhibitors

## CC[C@H](NC(=O)[C@@H](NC(=O)OCc1ccccc1)[C@@H](C)OC(C)(C)C)C(=O)N[C@H](C=O)C[C@@H]1CCNC1=O [TG-0205221]
SARS 3CLpro
  Ki: 52 nM
SARS-CoV
  EC50: 600 nM

## CN(C)CCCSc1ccccc1NC(=O)/C=C/c1ccccc1 [cinanserin]
[2]
  inhibition of MHV 3CLpro: no inhibition
[3]
  inhibition of HKU1 3CLpro: no inhibition
SARS-CoV 3CLpro; 100 μM
  inhibition of SARS-CoV 3CLpro: no inhibition
  inhibition of authentic SARS-CoV 3CLpro: no inhibition
[4]
  reduction of viral RNA in cell culture media: 3 log
